The structures appear in SMILES notation. “And” between values parts separate entries of the source, which are not always exact repeats. Equal entries are not always repeated. “Also recorded” adds a separate entry of the source.

One data set deals with T1, μ-opioid receptor (MOR) (Rattus norvegicus, UniProt P33535).
T1 construct: Frozen whole rat brains excluding cerebellum were thawed on ice; from tissue; host or cells: whole rat brain excluding cerebellum, membrane homogenate
Nature of the data set: Opioid receptor binding, μ sites ([3H]DAMGO), rat brain homogenate.

The target of a further data set is T2, δ-opioid receptor (DOR) (Rattus norvegicus, UniProt P33533).
T2 construct: Frozen whole rat brains excluding cerebellum were thawed on ice; from tissue; host or cells: whole rat brain excluding cerebellum, membrane homogenate
T2 sequence (P33533 whole entry): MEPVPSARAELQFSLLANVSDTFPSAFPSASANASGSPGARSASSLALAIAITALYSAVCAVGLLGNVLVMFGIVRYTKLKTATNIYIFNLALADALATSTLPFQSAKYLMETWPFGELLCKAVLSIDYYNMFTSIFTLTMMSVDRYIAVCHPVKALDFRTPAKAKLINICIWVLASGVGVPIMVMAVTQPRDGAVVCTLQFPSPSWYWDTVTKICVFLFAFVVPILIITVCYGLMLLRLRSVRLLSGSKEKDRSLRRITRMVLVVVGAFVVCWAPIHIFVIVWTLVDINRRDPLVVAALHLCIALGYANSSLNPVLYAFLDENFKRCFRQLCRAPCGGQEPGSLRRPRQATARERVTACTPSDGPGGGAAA
Nature of the data set: Opioid receptor binding, δ sites ([3H]DADLE), rat brain homogenate.

A further data set deals with T3, κ-opioid receptor (KOR) (Rattus norvegicus, UniProt P34975).
T3 construct: Frozen whole rat brains excluding cerebellum were thawed on ice; from tissue; host or cells: whole rat brain excluding cerebellum, membrane homogenate
T3 sequence (P34975 whole entry): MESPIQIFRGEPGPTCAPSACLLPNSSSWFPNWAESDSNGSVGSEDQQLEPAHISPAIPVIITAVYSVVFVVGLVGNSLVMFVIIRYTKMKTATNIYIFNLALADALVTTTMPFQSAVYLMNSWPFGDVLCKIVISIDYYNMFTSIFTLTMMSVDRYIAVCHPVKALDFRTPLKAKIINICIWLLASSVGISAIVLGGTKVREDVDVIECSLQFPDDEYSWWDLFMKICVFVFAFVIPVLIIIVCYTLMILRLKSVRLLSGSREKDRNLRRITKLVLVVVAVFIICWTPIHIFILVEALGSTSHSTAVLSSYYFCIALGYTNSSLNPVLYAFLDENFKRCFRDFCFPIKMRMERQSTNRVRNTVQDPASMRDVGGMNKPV
Nature of the data set: Opioid receptor binding, κ sites ([3H]U69,593), rat brain homogenate. The following applies: KOR Binding (Ki), whole rat brain excluding cerebellum, [3H]U69,593; Ki ± SEM.

In another data set the target is T4, rat MOR (Rattus norvegicus, UniProt P33535).
T4 construct: expressed in transfected cells; host or cells: C6 rat glioma cells, stably transfected; membranes
T4 sequence (P33535 whole entry): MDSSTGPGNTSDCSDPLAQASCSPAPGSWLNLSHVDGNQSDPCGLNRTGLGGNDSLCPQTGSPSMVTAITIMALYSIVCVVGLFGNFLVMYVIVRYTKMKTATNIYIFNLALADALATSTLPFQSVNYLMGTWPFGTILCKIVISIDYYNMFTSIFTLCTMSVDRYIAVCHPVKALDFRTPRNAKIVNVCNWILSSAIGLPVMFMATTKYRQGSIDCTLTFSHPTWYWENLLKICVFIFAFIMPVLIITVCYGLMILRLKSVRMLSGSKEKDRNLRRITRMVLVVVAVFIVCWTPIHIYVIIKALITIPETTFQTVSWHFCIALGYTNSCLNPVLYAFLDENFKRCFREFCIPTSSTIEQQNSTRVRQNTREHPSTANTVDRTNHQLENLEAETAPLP
Nature of the data set: Stimulation of [35S]GTPγS binding, C6 glioma cell membranes expressing MOR. It counts as biochemical. The following applies: for MOR activity type in the [35S]GTPγS assay: antagonist activity assumed from high MOR affinity and lack of stimulation; for MOR % Stimulation, [35S]GTPγS: compared to standard maximal DAMGO.

The target in another data set is T5, rat DOR (Rattus norvegicus, UniProt P33533).
T5 construct: expressed in transfected cells; host or cells: C6 rat glioma cells, stably transfected; membranes
T5 sequence (P33533 whole entry): as the sequence (P33533 whole entry) above
Nature of the data set: Stimulation of [35S]GTPγS binding, C6 glioma cell membranes expressing DOR. As to conditions: for EC50: DOR EC50, [35S]GTPγS, C6 cells expressing DOR, mean ± SEM; for DOR % Stimulation, [35S]GTPγS: compared to standard maximal DPDPE. It is filed as biochemical.

In the next data set the target is T6, human KOR (Homo sapiens, UniProt P41145).
T6 construct: expressed in transfected cells; membranes
T6 sequence (P41145 whole entry): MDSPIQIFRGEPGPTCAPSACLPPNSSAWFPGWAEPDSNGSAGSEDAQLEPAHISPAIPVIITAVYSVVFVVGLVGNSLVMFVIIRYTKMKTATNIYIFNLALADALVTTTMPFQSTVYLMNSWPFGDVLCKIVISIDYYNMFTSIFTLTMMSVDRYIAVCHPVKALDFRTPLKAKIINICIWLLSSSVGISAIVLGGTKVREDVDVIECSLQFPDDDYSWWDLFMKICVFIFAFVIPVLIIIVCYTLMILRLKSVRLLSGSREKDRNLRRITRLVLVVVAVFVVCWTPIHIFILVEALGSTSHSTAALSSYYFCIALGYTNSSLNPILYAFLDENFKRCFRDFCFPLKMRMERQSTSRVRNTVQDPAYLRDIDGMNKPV
Nature of the data set: Stimulation of [35S]GTPγS binding, CHO cell membranes expressing KOR. As to conditions: for KOR % Stimulation, [35S]GTPγS: compared to standard maximal U69593; for KOR EC50, [35S]GTPγS: CHO cells expressing KOR, mean ± SEM, DNS = no stimulation. It is filed as biochemical. In general terms: GTPγS is a poorly hydrolysed GTP analogue; its binding reports G protein activation.

For data set [1], the target named is T7, human μ-opioid receptor (OPRM1) (Homo sapiens, UniProt P35372).
T7 construct: host or cells: HitHunter CHO-K1 cells
T7 sequence (P35372 whole entry): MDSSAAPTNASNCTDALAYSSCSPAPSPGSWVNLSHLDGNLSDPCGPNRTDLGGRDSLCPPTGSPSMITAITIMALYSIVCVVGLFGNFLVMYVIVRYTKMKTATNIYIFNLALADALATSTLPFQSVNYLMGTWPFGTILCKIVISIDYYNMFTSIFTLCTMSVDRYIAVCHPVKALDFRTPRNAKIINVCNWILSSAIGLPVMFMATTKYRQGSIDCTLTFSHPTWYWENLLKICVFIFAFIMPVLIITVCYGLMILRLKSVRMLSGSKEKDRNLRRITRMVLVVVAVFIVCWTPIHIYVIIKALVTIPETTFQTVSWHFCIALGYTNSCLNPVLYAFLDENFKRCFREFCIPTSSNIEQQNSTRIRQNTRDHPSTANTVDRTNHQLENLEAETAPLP
Nature of the data set: cell-based. The following applies: for EC50: MOR cAMP Agonist Potency ± SEM; for Emax: OPRM1, read-out: MOR cAMP % Efficacy.

In data set [2] the target is T8, human δ-receptor (OPRMD1) (Homo sapiens, UniProt P41143).
T8 construct: host or cells: HitHunter CHO-K1 cells
T8 sequence (P41143 whole entry): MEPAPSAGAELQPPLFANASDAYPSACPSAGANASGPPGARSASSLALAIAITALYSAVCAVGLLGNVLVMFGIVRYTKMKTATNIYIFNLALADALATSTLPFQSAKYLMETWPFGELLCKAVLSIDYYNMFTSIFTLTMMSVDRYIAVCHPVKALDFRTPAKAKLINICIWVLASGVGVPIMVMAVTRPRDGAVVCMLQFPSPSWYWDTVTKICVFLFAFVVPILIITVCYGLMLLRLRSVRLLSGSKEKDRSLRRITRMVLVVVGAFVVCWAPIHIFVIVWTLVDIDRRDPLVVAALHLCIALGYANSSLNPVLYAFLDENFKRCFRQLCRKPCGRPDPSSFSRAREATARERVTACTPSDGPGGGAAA
The experiment in a line: cell-based. It counts as cell-based. The following applies: for Emax: CHO-K1, read-out: DOR cAMP % Efficacy; for EC50: DOR cAMP Agonist Potency ± SEM.

The target of data set [3] is T9, human κ-opioid receptor (OPRK1) (Homo sapiens, UniProt P41145).
T9 construct: host or cells: HitHunter CHO-K1 cells
T9 sequence (P41145 whole entry): as the sequence (P41145 whole entry) above
Nature of the data set: cell-based. As to conditions: for Emax: CHO-K1, read-out: KOR cAMP % Efficacy; for EC50: KOR cAMP Agonist Potency ± SEM.

The target of data set [4] is T10, human μ-opioid receptor β-arrestin-2 (Homo sapiens, UniProt P35372).
T10 construct: enzyme fragment for EFC (β-galactosidase ProLink fragment, by own knowledge of the PathHunter system); host or cells: PathHunter CHO cells
T10 sequence (P35372 whole entry, the tested form may be a part): as the sequence (P35372 whole entry) above
Nature of the data set: cell-based. As to conditions: for Emax: read-out: MOR Mediated β-arrestin Recruitment (% Control, Emax DAMGO).

Data set [5] deals with squirrel monkeys. The experiment in a line: Warm-water tail-withdrawal latency in squirrel monkeys. It is filed as in vivo, Saimiri sciureus.
Data set [6] can be described thus: Squirrel monkey ventilation (whole-body plethysmograph, air or 5% CO2). It counts as in vivo, Saimiri sciureus. As to conditions: male, monkey, in vivo, other: injection; squirrel monkeys; dose required to decrease minute volume in 5% CO2 to 50% of baseline; read-out: ED50 Respiratory Depression. As to the method: Gas (either air or a 5% CO2 in air mixture) was introduced to and extracted from the chamber at a constant flow rate of 5 L/min. Experimental sessions consisted of 4–6 consecutive 30 min cycles, each comprising a 15 min exposure to air followed by a 15 min exposure to 5% CO2. Drug effects were determined using cumulative dosing procedures, and injections were administered following each exposure to 5% CO2. Respiratory rate and tidal volume (mL/breath) were recorded over 1 min periods and were multiplied to provide minute volumes. Data from the last three minutes of each exposure to air or CO2 were averaged and used for analysis of drug effects on ventilation.

Data set [7] can be described thus: Operant responding (FR10 food reinforcement) in squirrel monkeys. As to conditions: male, monkey, in vivo.
Data set [8] concerns squirrel monkeys. The description is as above. The following applies: squirrel monkeys.
The test system of a further data set is Swiss Webster mice. Nature of the data set: Respiration rate and arterial oxygen saturation in mice (MouseOx pulse oximeter). The following applies: for Effect on respiration rate in mice: normal air, s.c., 2i 0.01–0.1 mg/kg, morphine 10 mg/kg, AUC 6–45 min post injection, vs saline.

T1 sequence (P33535 whole entry): as the sequence (P33535 whole entry) above

Take `Cc1ccc(CCN2CC[C@]34c5c6ccc(O)c5O[C@H]3C(=O)CCC4C2C6)cc1` (stereo partly drawn) [Compound 2c, (7aR,12bS)-9-Hydroxy-3-(4-methylphenethyl)-2,3,4,4a,5,6-hexahydro-1H-4,12-methanobenzofuro[3,2-e]-isoquinolin-7(7aH)-one]: the Ki is 0.86 ± 0.12 nM at μ-opioid receptor (MOR), 6.34 ± 0.65 nM on δ-opioid receptor (DOR) and 44 ± 3.8 nM on κ-opioid receptor (KOR). Further, the EC50 on rat MOR is 1.9 ± 0.7 nM; on rat DOR, 23.1 ± 6.9 nM; on human KOR it was 38.1 ± 10.6 nM; in data set [1], 0.08 nM; in data set [2], 1 nM; in [3] it was 8.7 nM and 8.71 nM. Also, in [4], a half-maximal effect (EC50) was put at 5.6 nM. The “MOR activity type in the [35S]GTPγS assay” value (“MOR activity type” below) on rat MOR was “potent partial MOR agonist”. On rat MOR, the “MOR % Stimulation, [35S]GTPγS” value worked out at 55.6 ± 2.1%. In addition, the “DOR % Stimulation, [35S]GTPγS” value on rat DOR is 95% and 95.4 ± 3.8%. In addition, on human KOR, the “KOR % Stimulation, [35S]GTPγS” value was found to be 31.4 ± 4.2%. For the same compound, the Emax in data set [1] is 102%; in data set [2] it was 95%; in data set [3] it was 99.4%; in data set [4], 46.5%. For the same compound, in [4], the “Bias Factor” value was determined as 1.12.
In the case of `COc1ccc(CCN2CC[C@]34c5c6ccc(O)c5O[C@H]3C(=O)CCC4C2C6)cc1` (stereo partly drawn) [Compound 2d, (7aR,12bS)-9-Hydroxy-3-(4-methoxyphenethyl)-2,3,4,4a,5,6-hexahydro-1H-4,12-methanobenzofuro[3,2-e]-isoquinolin-7(7aH)-one], the results for the Ki on μ-opioid receptor (MOR), at δ-opioid receptor (DOR) and at κ-opioid receptor (KOR) were 0.67 ± 0.05 nM, 5.43 ± 0.47 nM and 26.3 ± 1.9 nM, respectively. For the same compound, on rat MOR (C6 cells expressing MOR, mean ± SEM, DNS = no stimulation), the “MOR EC50, [35S]GTPγS” value is on record as “DNS”. The “MOR activity type” value on rat MOR was “MOR antagonist”. In addition, the EC50 on rat DOR is 33.6 ± 6.4 nM; at human KOR, 5.9 ± 1.7 nM; in data set [1], 0.13 nM; in data set [2] it was 2.7 nM and 2.71 nM; in [3], 7.4 nM and 7.38 nM; in [4], 11.2 nM. Also, the “DOR % Stimulation, [35S]GTPγS” value on rat DOR was 49% and 48.9 ± 3.2%. Further, the “KOR % Stimulation, [35S]GTPγS” value on human KOR is 21.8% and 21.8 ± 0.8%. Moreover, the Emax in data set [1] is 103%; in data set [2], 97.5%; in [3], 96.2%; in data set [4] it was 23%. For the same compound, in data set [4], the “Bias Factor” value is 2.69.
For the compound `O=C1CCC2C3Cc4ccc(O)c5c4[C@@]2(CCN3CCc2ccc(F)cc2)[C@H]1O5` (stereo partly drawn) [Compound 2e, (7aR,12bS)-9-Hydroxy-3-(4-fluorophenethyl)-2,3,4,4a,5,6-hexahydro-1H-4,12-methanobenzofuro[3,2-e]-isoquinolin-7(7aH)-one], the Ki was found to be 0.87 ± 0.1 nM at μ-opioid receptor (MOR), 13.4 ± 0.9 nM on δ-opioid receptor (DOR) and 44.3 ± 6 nM on κ-opioid receptor (KOR). Besides, the EC50 on rat MOR came to 2.5 ± 0.3 nM; on rat DOR, 64.2 ± 9.9 nM; in data set [1] it was 0.17 nM; in [2], 2.58 nM; in data set [3] it was 19.9 nM; in [4] it was 15.5 nM. The “MOR activity type” value on rat MOR is listed as “potent partial MOR agonist”. Also, the “MOR % Stimulation, [35S]GTPγS” value at rat MOR turned out to be 42.6 ± 2.9%. The “DOR activity type in the [35S]GTPγS assay” value on rat DOR is recorded as “weak partial DOR agonist”. Moreover, at human KOR, the “KOR EC50, [35S]GTPγS” value is on record as “DNS”. Moreover, the Emax in data set [1] is 101%; in data set [2] it was 98.1%; in [3] it was 80%; in data set [4] it was 45.8%. Besides, in [4], the “Bias Factor” value came to 1.39.
Regarding `O=C1CCC2C3Cc4ccc(O)c5c4[C@@]2(CCN3CCc2cccc(F)c2)[C@H]1O5` (stereo partly drawn) [Compound 2f, (7aR,12bS)-9-Hydroxy-3-(3-fluorophenethyl)-2,3,4,4a,5,6-hexahydro-1H-4,12-methanobenzofuro[3,2-e]-isoquinolin-7(7aH)-one], the Ki at μ-opioid receptor (MOR) is 0.49 ± 0.07 nM; at δ-opioid receptor (DOR), 4.48 ± 0.43 nM; on κ-opioid receptor (KOR) it was 30.2 ± 2.3 nM. For the same compound, the EC50 was 2.4 ± 0.3 nM at rat MOR; 54.1 ± 4.7 nM on rat DOR; 0.06 nM in data set [1]; 1.64 nM in data set [2]; 56.5 nM in data set [3]; 6.2 nM in data set [4]. Moreover, the “MOR % Stimulation, [35S]GTPγS” value at rat MOR turned out to be 56.8 ± 7.5%. For the same compound, the “DOR % Stimulation, [35S]GTPγS” value at rat DOR was found to be 86.7 ± 8.0%. The “KOR EC50, [35S]GTPγS” value at human KOR is on record as “DNS”. The Emax in data set [1] was 102%; in data set [2], 96.9%; in data set [3], 58%; in data set [4] it was 40.3%. Also, the “Bias Factor” value in [4] is recorded as 1.94.
For `O=C1CCC2C3Cc4ccc(O)c5c4[C@@]2(CCN3CCc2ccccc2F)[C@H]1O5` (stereo partly drawn) [Compound 2g, (7aR,12bS)-9-Hydroxy-3-(2-fluorophenethyl)-2,3,4,4a,5,6-hexahydro-1H-4,12-methanobenzofuro[3,2-e]-isoquinolin-7(7aH)-one], the Ki at μ-opioid receptor (MOR) was 0.32 ± 0.04 nM; on δ-opioid receptor (DOR), 3.57 ± 0.49 nM; on κ-opioid receptor (KOR) it was 23.2 ± 2.8 nM. Further, the EC50 is 2.1 ± 0.7 nM on rat MOR; 92.7 ± 17 nM at rat DOR; 0.01 nM in [1]; 0.26 nM in [2]; 19.9 nM in data set [3]; 1.7 nM in data set [4]. Further, the “MOR % Stimulation, [35S]GTPγS” value on rat MOR is on record as 100 ± 0.3%. For the same compound, the “DOR % Stimulation, [35S]GTPγS” value on rat DOR was 83.0 ± 3.3%. Further, the “KOR EC50, [35S]GTPγS” value at human KOR was “DNS”. The Emax in data set [1] is 101%; in data set [2], 93.8%; in data set [3] it was 74%; in [4], 73.2%. The “Bias Factor” value in data set [4] is listed as 1.37.
With `CN1CC[C@]23c4c5ccc(O)c4O[C@H]2[C@@H](O)C=C[C@H]3[C@H]1C5` [Morphine, reference compound], the ED50 in the data set on squirrel monkeys [5] (Saimiri, in Primates, dose required to increase tail withdrawal latency to 5 s, read-out: ED50 Antinociception (52 °C)) amounted to 0.14 mg/kg; in data set [6], 1.06 mg/kg; in data set [7], 1.3 mg/kg. The “Antinociceptive effect, tail withdrawal latency at 50, 52 and 55 °C” value in the data set with squirrel monkeys [5] (cumulative doses) was “full antinociceptive effects at all three water temperatures”. In addition, in the data set with squirrel monkeys [8], the “Behavioral impairment (decreases in operant performance, reinforcers obtained)” value is listed as “dose-related behavioral impairment”. Further, the “Effect on oxygen saturation (SpO2) in mice” value in the data set on Swiss Webster mice (6 min to 45 min post-injection, data not shown) was “neither morphine nor 2i had any effect”. In addition, the “Effect on respiration rate in mice” value in the data set with Swiss Webster mice is “significantly reduced respiratory rate”; with Swiss Webster mice (listed as morphine), “significantly reduced; also recorded: significantly decreased respiratory rate”.

For orientation: Ki means the dissociation constant of the complex between target and ligand, obtained from inhibition or displacement. One may read the EC50 as the concentration needed to bring the measured effect to its halfway point. In general, ED50 refers to the dose that gives a 50% effect, or the effect in half of the subjects.
